System: cool season plant species
Assay: B2 Post-emergence efficacy Test 2, cool season plant species
Type: in vivo
Settings: 15 days after application, 0=no damage, 100=total kill
Method: Seeds of a variety of test species (see Table B1) were sown in standard soil in pots. After cultivation for 12 days (post-emergence) under controlled conditions in a glasshouse (at 24/18° C. or 20/16° C., at day/night; 16 hours light; 65% humidity), the plants were sprayed with an aqueous spray solution derived from the formulation of the technical active ingredient dissolved in IF50 (see Table B2 for composition) and adjuvant (Genapol XO80) was added to the spray solution at a rate of 0.2% v/v. [table] [table] After application, the test plants were grown in a glasshouse under controlled conditions (as above) and watered twice daily. Herbicidal activity was evaluated 15 days after application on a 0-100 scale. The results, where 0=no damage to test plant and 100=total kill of test plant are shown below in Tables 6 to 9.

Cc1nn(C)c(=O)c(-c2c(F)ccc(Cl)c2CCc2ccccc2C(F)(F)F)c1O [Compound 1.066]
Herbicidal activity (0-100 scale) ALOMY (15 g/Ha): 20 | Herbicidal activity (0-100 scale) ALOMY (30 g/Ha): 50 | Herbicidal activity (0-100 scale) ALOMY (60 g/Ha): 70 | Herbicidal activity (0-100 scale) ALOMY (125 g/Ha): 80 | Herbicidal activity (0-100 scale) ALOMY (250 g/Ha): 90 | Herbicidal activity (0-100 scale) ALOMY (500 g/Ha): 90 | Herbicidal activity (0-100 scale) AVEFA (15 g/Ha): 0 | Herbicidal activity (0-100 scale) AVEFA (30 g/Ha): 20 | Herbicidal activity (0-100 scale) AVEFA (60 g/Ha): 40 | Herbicidal activity (0-100 scale) AVEFA (125 g/Ha): 90 | Herbicidal activity (0-100 scale) AVEFA (250 g/Ha): 90 | Herbicidal activity (0-100 scale) AVEFA (500 g/Ha): 90 | Herbicidal activity (0-100 scale) BEAVA (15 g/Ha): 80 | Herbicidal activity (0-100 scale) BEAVA (30 g/Ha): 80 | Herbicidal activity (0-100 scale) BEAVA (60 g/Ha): 80 | Herbicidal activity (0-100 scale) BEAVA (125 g/Ha): 80 | Herbicidal activity (0-100 scale) BEAVA (250 g/Ha): 80 | Herbicidal activity (0-100 scale) BEAVA (500 g/Ha): 90 | Herbicidal activity (0-100 scale) BROTE (15 g/Ha): 0 | Herbicidal activity (0-100 scale) BROTE (30 g/Ha): 20 | Herbicidal activity (0-100 scale) BROTE (60 g/Ha): 60 | Herbicidal activity (0-100 scale) BROTE (125 g/Ha): 70 | Herbicidal activity (0-100 scale) BROTE (250 g/Ha): 80 | Herbicidal activity (0-100 scale) BROTE (500 g/Ha): 90 | Herbicidal activity (0-100 scale) BRSNN (15 g/Ha): 90 | Herbicidal activity (0-100 scale) BRSNN (30 g/Ha): 90 | Herbicidal activity (0-100 scale) BRSNN (60 g/Ha): 90 | Herbicidal activity (0-100 scale) BRSNN (125 g/Ha): 90 | Herbicidal activity (0-100 scale) BRSNN (250 g/Ha): 90 | Herbicidal activity (0-100 scale) BRSNN (500 g/Ha): 90 | Herbicidal activity (0-100 scale) CHEAL (30 g/Ha): 90 | Herbicidal activity (0-100 scale) CHEAL (60 g/Ha): 90 | Herbicidal activity (0-100 scale) CHEAL (125 g/Ha): 90 | Herbicidal activity (0-100 scale) CHEAL (250 g/Ha): 100 | Herbicidal activity (0-100 scale) CHEAL (500 g/Ha): 100 | Herbicidal activity (0-100 scale) GALAP (15 g/Ha): 20 | Herbicidal activity (0-100 scale) GALAP (30 g/Ha): 20 | Herbicidal activity (0-100 scale) GALAP (60 g/Ha): 20 | Herbicidal activity (0-100 scale) GALAP (125 g/Ha): 20 | Herbicidal activity (0-100 scale) GALAP (250 g/Ha): 30 | Herbicidal activity (0-100 scale) GALAP (500 g/Ha): 90 | Herbicidal activity (0-100 scale) HORVW (15 g/Ha): 0 | Herbicidal activity (0-100 scale) HORVW (30 g/Ha): 10 | Herbicidal activity (0-100 scale) HORVW (60 g/Ha): 20 | Herbicidal activity (0-100 scale) HORVW (125 g/Ha): 70 | Herbicidal activity (0-100 scale) HORVW (250 g/Ha): 80 | Herbicidal activity (0-100 scale) HORVW (500 g/Ha): 90 | Herbicidal activity (0-100 scale) KCHSC (15 g/Ha): 0 | Herbicidal activity (0-100 scale) KCHSC (30 g/Ha): 0 | Herbicidal activity (0-100 scale) KCHSC (60 g/Ha): 0 | Herbicidal activity (0-100 scale) KCHSC (125 g/Ha): 10 | Herbicidal activity (0-100 scale) KCHSC (250 g/Ha): 20 | Herbicidal activity (0-100 scale) KCHSC (500 g/Ha): 20 | Herbicidal activity (0-100 scale) LOLPE (15 g/Ha): 10 | Herbicidal activity (0-100 scale) LOLPE (30 g/Ha): 20 | Herbicidal activity (0-100 scale) LOLPE (60 g/Ha): 80 | Herbicidal activity (0-100 scale) LOLPE (125 g/Ha): 90 | Herbicidal activity (0-100 scale) LOLPE (250 g/Ha): 90 | Herbicidal activity (0-100 scale) LOLPE (500 g/Ha): 100 | Herbicidal activity (0-100 scale) POAAN (15 g/Ha): 20 | Herbicidal activity (0-100 scale) POAAN (30 g/Ha): 70 | Herbicidal activity (0-100 scale) POAAN (60 g/Ha): 80 | Herbicidal activity (0-100 scale) POAAN (125 g/Ha): 90 | Herbicidal activity (0-100 scale) POAAN (250 g/Ha): 90 | Herbicidal activity (0-100 scale) POAAN (500 g/Ha): 90 | Herbicidal activity (0-100 scale) POLCO (15 g/Ha): 70 | Herbicidal activity (0-100 scale) POLCO (30 g/Ha): 80 | Herbicidal activity (0-100 scale) POLCO (60 g/Ha): 90 | Herbicidal activity (0-100 scale) POLCO (125 g/Ha): 90 | Herbicidal activity (0-100 scale) POLCO (250 g/Ha): 100 | Herbicidal activity (0-100 scale) POLCO (500 g/Ha): 100 | Herbicidal activity (0-100 scale) SINAR (15 g/Ha): 60 | Herbicidal activity (0-100 scale) SINAR (30 g/Ha): 60 | Herbicidal activity (0-100 scale) SINAR (60 g/Ha): 80 | Herbicidal activity (0-100 scale) SINAR (125 g/Ha): 90 | Herbicidal activity (0-100 scale) SINAR (250 g/Ha): 90 | Herbicidal activity (0-100 scale) SINAR (500 g/Ha): 90 | Herbicidal activity (0-100 scale) STEME (15 g/Ha): 80 | Herbicidal activity (0-100 scale) STEME (30 g/Ha): 60 | Herbicidal activity (0-100 scale) STEME (60 g/Ha): 90 | Herbicidal activity (0-100 scale) STEME (125 g/Ha): 90 | Herbicidal activity (0-100 scale) STEME (250 g/Ha): 90 | Herbicidal activity (0-100 scale) STEME (500 g/Ha): 100 | Herbicidal activity (0-100 scale) TRZAW (15 g/Ha): 0 | Herbicidal activity (0-100 scale) TRZAW (30 g/Ha): 10 | Herbicidal activity (0-100 scale) TRZAW (60 g/Ha): 40 | Herbicidal activity (0-100 scale) TRZAW (125 g/Ha): 60 | Herbicidal activity (0-100 scale) TRZAW (250 g/Ha): 70 | Herbicidal activity (0-100 scale) TRZAW (500 g/Ha): 80 | Herbicidal activity (0-100 scale) VERPE (15 g/Ha): 80 | Herbicidal activity (0-100 scale) VERPE (30 g/Ha): 90 | Herbicidal activity (0-100 scale) VERPE (60 g/Ha): 100 | Herbicidal activity (0-100 scale) VERPE (125 g/Ha): 100 | Herbicidal activity (0-100 scale) VERPE (250 g/Ha): 100 | Herbicidal activity (0-100 scale) VERPE (500 g/Ha): 100

Source: US12162840B2, “Herbicidal compositions” (SYNGENTA PARTICIPATIONS AG, priority 2018, dated 2024)
